The values that follow are results of earlier work, collected in patent publication US7217714B1, “CCR5 modulators” (Agouron Pharmaceuticals, Inc., priority 1998, dated 2007).

The subject of data set [1] is CXCR4 dependent primary and lab-adapted HIV viruses. Particulars: susceptible cultures.
In a further data set the test system is CCR5-tropic strains. Particulars: Baba et al. PNAS 1999.

As for `c1cc(CN2CCCNCCNCCCNCC2)ccc1CN1CCCNCCNCCCNCC1` [AMD3100], in data set [1], the “inhibition of infection by CXCR4 dependent HIV” value was “inhibit infection”.

Turning to `Cc1ccc(-c2ccc3c(c2)C=C(C(=O)Nc2ccc(C[N+](C)(C)C4CCOCC4)cc2)CCC3)cc1.[Cl-]` [TAK 779], the “block of entry of CCR5-tropic strains” value in the data set with CCR5-tropic strains is listed as “blocks entry”.

Regarding “SDF-1: "the chemokines RANTES, MIP-1α, MIP-1β, SDF-1 have been shown to suppress replication of primary HIV isolates"”, the “suppression of replication of primary HIV isolates” value (“suppression” for short) in the data set with primary HIV isolates is “suppress replication”.

B1: RANTES: "a protein which is regulated upon activation and is normal T-cell expressed and secreted (RANTES)" (protein, UniProt P13501 24-91, looked up)
C-C motif chemokine 5: SPYSSDTTPCCFAYIARPLPRAHIKEYFYTSGKCSNPAVVFVTRKNRQVCANPEKKWVREYINSLEMS
With B1, the “suppression” value in the data set on primary HIV isolates is “suppress replication”.

B2: MIP-1α: "the macrophage inflammatory proteins (MIP) designated MIP-1α and MIP-1β" (protein, UniProt P10147 24-92, looked up)
C-C motif chemokine 3: SLAADTPTACCFSYTSRQIPQNFIADYFETSSQCSKPGVIFLTKRSRQVCADPSEEWVQKYVSDLELSA
In the case of B2, the “suppression” value in the data set with primary HIV isolates was “suppress replication”.

B3: MIP-1β: "the macrophage inflammatory proteins (MIP) designated MIP-1α and MIP-1β" (protein, UniProt P13236 24-92, looked up)
C-C motif chemokine 4: APMGSDPPTACCFSYTARKLPRNFVVDYYETSSLCSQPAVVFQTKRSKQVCADPSESWVQEYVYDLELN
For the molecule B3, in the data set on primary HIV isolates, the “suppression” value is “suppress replication”.
